Where “and” joins values, the source holds several entries; their conditions need not be identical. Identical values can stand only once. Counter-ions that a name gives are not always drawn.
How the values were obtained:
recombinant human HDAC1 = target: T1, recombinant human HDAC1 (Homo sapiens, UniProt Q13547); test: HDAC1 in vitro fluorescence-based inhibition assay (ZMAL substrate); type: biochemical; details: for IC50: recombinant human HDAC1, ZMAL 10.5 µM, 90 min 37 °C, read-out: IC50 (µM) ± SE HDAC1
T1 construct: purchased BPS Biosciences (San Diego, CA, USA)
T1 sequence (Q13547 whole entry): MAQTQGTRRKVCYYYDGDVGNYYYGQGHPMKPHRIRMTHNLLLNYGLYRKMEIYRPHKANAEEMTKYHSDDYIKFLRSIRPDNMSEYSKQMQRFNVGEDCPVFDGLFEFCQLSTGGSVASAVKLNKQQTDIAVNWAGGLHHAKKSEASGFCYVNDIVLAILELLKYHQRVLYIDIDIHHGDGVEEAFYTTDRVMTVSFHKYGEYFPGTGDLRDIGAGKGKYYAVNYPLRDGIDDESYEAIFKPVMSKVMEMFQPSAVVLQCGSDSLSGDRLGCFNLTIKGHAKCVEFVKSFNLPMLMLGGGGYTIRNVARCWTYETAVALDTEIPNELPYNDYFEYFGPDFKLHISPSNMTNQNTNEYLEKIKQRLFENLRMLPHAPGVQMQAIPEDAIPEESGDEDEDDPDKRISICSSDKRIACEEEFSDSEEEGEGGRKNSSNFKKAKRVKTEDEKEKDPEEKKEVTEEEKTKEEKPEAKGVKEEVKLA
Text: (§1) In order to investigate a potential subtype selectivity among different HDAC classes, we first tested them against the recombinant histone deacetylases HDAC1 (class I) and HDAC6 (class llb). […] To further address this issue, we also tested the respective compounds against the class l histone deacetylase HDAC8 (also see Table 1).
(§2) Recombinant human HDAC1 and 6 were purchased from BPS Biosciences (San Diego, CA, USA), and recombinant human HDAC8 was produced as described before. Inhibition tests of human HDAC1 and 6 were conducted using carboxybenzyl acetyllysine aminomethylcoumarin (ZMAL) as a substrate. […] For testing of HDAC8, the commercial Fluor de Lys drug discovery kit (BML-KI178) (Enzo Life Sciences, Lausen, Switzerland) was used according to the manufacturer’s instruction. Briefly, the test compound, Fluor de Lys-HDAC8 substrate (50 μM), and enzyme were incubated for 90 min at 37 °C with subsequent addition of 50 μL of Developer II (BML-KI176) (Enzo Life Sciences, Lausen, Switzerland) and further incubation for 45 min at 30 °C. In both assays, trichostatin A (2 μM) was used to stop the reaction. Fluorescence in both cases was measured in a plate reader (BMG Polarstar, BMG Labtech, Ortenberg, Germany) with excitation at λ = 390 nm and emission at λ = 460 nm.

recombinant human HDAC6 = target: T2, recombinant human HDAC6 (Homo sapiens, UniProt Q9UBN7); test: HDAC6 in vitro fluorescence-based inhibition assay (ZMAL substrate); type: biochemical; details: recombinant human HDAC6, ZMAL 10.5 µM, 90 min 37 °C; read-out: IC50 (µM) ± SE HDAC6
T2 construct: purchased BPS Biosciences (San Diego, CA, USA)
T2 sequence (Q9UBN7 1-1215): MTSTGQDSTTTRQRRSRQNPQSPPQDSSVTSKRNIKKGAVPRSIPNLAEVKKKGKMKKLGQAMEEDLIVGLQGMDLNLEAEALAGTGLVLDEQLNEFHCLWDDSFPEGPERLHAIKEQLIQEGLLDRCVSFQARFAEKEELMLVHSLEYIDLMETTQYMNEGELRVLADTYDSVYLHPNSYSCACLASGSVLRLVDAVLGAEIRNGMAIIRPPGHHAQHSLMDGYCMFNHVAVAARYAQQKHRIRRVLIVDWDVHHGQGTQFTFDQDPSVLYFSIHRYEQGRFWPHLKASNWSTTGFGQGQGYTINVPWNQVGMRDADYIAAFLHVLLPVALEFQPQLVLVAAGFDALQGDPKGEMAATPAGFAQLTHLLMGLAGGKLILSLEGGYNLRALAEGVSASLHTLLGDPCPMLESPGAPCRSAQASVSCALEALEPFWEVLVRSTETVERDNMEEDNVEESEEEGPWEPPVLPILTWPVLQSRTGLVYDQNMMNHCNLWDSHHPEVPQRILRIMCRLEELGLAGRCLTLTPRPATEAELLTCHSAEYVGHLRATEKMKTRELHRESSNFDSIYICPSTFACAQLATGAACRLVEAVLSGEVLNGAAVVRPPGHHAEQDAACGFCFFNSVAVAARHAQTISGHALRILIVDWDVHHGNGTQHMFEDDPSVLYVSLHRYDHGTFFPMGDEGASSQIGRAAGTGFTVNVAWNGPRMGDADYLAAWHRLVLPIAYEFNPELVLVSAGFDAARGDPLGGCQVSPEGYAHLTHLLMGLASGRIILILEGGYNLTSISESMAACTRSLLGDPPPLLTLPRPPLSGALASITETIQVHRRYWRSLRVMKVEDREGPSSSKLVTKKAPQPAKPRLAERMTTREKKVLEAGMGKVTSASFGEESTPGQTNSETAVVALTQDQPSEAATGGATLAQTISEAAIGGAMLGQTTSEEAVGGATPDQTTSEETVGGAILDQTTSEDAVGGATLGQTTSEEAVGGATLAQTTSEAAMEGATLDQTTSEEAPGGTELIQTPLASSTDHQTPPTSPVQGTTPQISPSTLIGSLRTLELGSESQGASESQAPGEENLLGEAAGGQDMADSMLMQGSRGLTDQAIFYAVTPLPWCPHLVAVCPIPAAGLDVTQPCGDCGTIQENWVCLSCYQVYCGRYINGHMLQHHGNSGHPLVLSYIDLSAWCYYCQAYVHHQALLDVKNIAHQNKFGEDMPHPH
Text: as §1, §2

recombinant human HDAC8 = target: T3, recombinant human HDAC8 (Homo sapiens, UniProt Q9BY41); test: HDAC8 in vitro inhibition assay (Fluor de Lys kit); type: biochemical; details: recombinant human HDAC8, Fluor de Lys-HDAC8 substrate 50 µM, 90 min 37 °C; read-out: IC50 (µM) ± SE HDAC8
T3 construct: made in house
T3 sequence (Q9BY41 1-377): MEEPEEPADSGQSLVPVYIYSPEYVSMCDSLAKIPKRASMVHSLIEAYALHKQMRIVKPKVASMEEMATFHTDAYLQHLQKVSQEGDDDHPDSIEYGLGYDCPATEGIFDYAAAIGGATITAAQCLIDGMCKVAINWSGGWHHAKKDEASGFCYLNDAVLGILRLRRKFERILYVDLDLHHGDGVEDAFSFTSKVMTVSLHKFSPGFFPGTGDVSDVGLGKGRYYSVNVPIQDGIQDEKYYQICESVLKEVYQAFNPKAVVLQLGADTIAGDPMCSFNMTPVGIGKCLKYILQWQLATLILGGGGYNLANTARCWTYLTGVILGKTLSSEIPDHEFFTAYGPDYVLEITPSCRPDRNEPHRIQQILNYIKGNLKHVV
Text: as §1, §2

[1] = Stability analysis under in vitro assay conditions, HPLC quantification of released hydroxamic acid; type: physicochemical; details: in vitro assay conditions without substrate, HDAC1 present, compound 2.4 mM, 90 min 37 °C
Description: In order to address the question if the newly-synthesized carbamates are hydrolyzed during the assay procedure or if they really serve as HDAC inhibitors themselves, stability stress tests were performed. For this purpose, the compounds were subjected to the standard in vitro assay conditions, but without adding a substrate as, no enzyme conversion should be observed in these experiments. After 90 min of incubation at 37 °C, the release of SAHA of the different samples was detected and quantified via HPLC. This led to the finding that a release of SAHA could be detected for all samples (see Table 1). […] This means that the question if the carbamate scaffold represents a new warhead for HDAC inhibition or if the degradation to SAHA is solely responsible for the observed inhibitory effects cannot be resolved completely.
To test the stability of Compound 9 under assay conditions, we also performed stability analysis with HPLC quantification. This experiment led to the finding that 8.7% of the carbamate 9 is degraded under release of bufexamac during incubation time. This fraction of released bufexamac may contribute to in vitro and cellular HDAC inhibition, but the observed selectivity profile of the carbamate in the in vitro assays clearly implies an intrinsic HDAC activity of carbamates.
For stability tests, the carbamates were subjected to the described in vitro assay conditions (see above) without adding the substrate ZMAL and without the second incubation step with trypsin. Compounds were applied in a final concentration of 2.4 mM, and recombinant HDAC1 was used as the enzyme. After 90 min of incubation at 37 °C, the release of SAHA was detected via HPLC on an Agilent 1200 series device. The employed analytical column was a Kinetex 5u XB-C18, 100 Å, 250 × 4.6 mm (Phenomenex, Torrance, CA, USA) with the ReproSil 100 C18 5-µm precolumn (Jasco, Oklahoma City, OK, USA). The following conditions were applied: Eluent A: H2O containing 0.05% TFA, Eluent B: acetonitrile containing 0.05% TFA, linear gradient conditions (0–4 min, A = 90%, B = 10%; 4–29 min, linear increase to 100% of B; 29–31 min, B = 100%; 31.5–40 min, A = 10%, B = 90%); injection volume: 30 µL, flow rate: 1 mL/min; detection wavelength: λ = 254 nm. For evaluation, the ChemStation software from Agilent was used. To quantify the released amount of SAHA and bufexamac, calibration curves were plotted by incubating DMSO stocks of these compounds under in vitro assay conditions with final compound concentrations ranging from 1 µM–200 µM. HPLC analysis with the conditions described above led to the following equations: y = 13.935x − 27.918 for SAHA and y = 0.6099x + 1.1301 for bufexamac.

[2] = test system: acetylation of histone H3 and tubulin in HL60 cells; test: Western blot of acetylation levels of histone H3 and tubulin in HL60 cells; type: cell-based, human; details: 4 h
Description: An inhibition of deacetylation in this experiment is expected to lead to hyperacetylation of the respective proteins. Besides histone H3, acetylated tubulin was chosen as a target protein. As tubulin is only accepted as a target by HDAC 6 [21], this allows us to explore subtype selectivity in a cellular setting (see Figure 4).
HL60 cells were treated with the inhibitors in the given concentrations. Cells treated with dimethyl sulfoxide as a vehicle were used as controls. After an incubation time of 4 h, cells were transferred into 50-mL Falcon tubes and centrifuged (300× g, 5 min). The supernatant was removed, and the cells were washed with PBS, before they were transferred to 1.7-mL reaction tubes. The cells were lysated with Bio-Rad loading buffer, and the cell suspension was heated to 95 °C for 5 min. The proteins then were separated using a 15% SDS-polyacrylamide gel electrophoresis and transferred to a polyvinylidene fluoride (PVDF) membrane (Roti-PVDF, Carl Roth, Karlsruhe, Germany). Acetylation levels were detected using an anti-acetyl histone H3 antibody (Millipore, Billerica, MA, USA) and an anti-acetyl-α-tubulin antibody (Sigma Aldrich, St. Louis, MO, USA). An antibody directed against GAPDH (Sigma Aldrich) was used as a loading control.

[3] = test system: HDAC activity in HL60 cells; test: Cellular HDAC inhibition assay (MAL substrate) in HL60 cells; details: Homo sapiens, HL-60, read-out: IC50 (µM) ± SE cellular HDAC inhibition HL60
Description: (§3) Therefore, we decided to adapt this assay for a cellular setting allowing us to verify the previous results by assessing HDAC inhibition in the human leukemia cell lines HL60 and U937 (see the right side of Table 2).
(§4) After 2 h of incubation, 50 µL substrate solution were added, containing tert-butyloxycarbonyl acetyl lysine aminomethylcoumarin (MAL) as a substrate (300 µM final assay concentration) and IGEPAL CA-630 (final concentration 0.05%). After 2 more hours of incubation at 37 °C and 5% CO2, 50 µL stop solution consisting of 0.5 µL TSA (100 µM) and 5 µL trypsin solution (10 mg/mL) in 44.5 µL cell buffer were added. This mixture was incubated for a further 20 min at 37 °C. Fluorescence was measured in a plate reader (BMG Polarstar) with excitation at λ = 390 nm and emission at λ = 460 nm.

[4] = test system: HDAC activity in U937 cells; test: Cellular HDAC inhibition assay (MAL substrate) in U937 cells; details: Homo sapiens, U-937, read-out: IC50 (µM) ± SE cellular HDAC inhibition U937
Description: as §3, §4

HL60 cells = test: Cell proliferation assay (CellTiter 96 AQueous) in HL60 cells; details: Homo sapiens, HL-60, 72 h, read-out: GI50 (µM) ± SE HL60
Description: (§5) To further investigate the inhibition properties of the carbamates, we tested their antiproliferative activity on human promyelocytic leukemia cells (HL60) and on human histiocytic lymphoma cells (U937).
(§6) HL60 or U937 cells were seeded in 96-well tissue culture plates at a density of 5 × 10^4 cells per well. Cells were immediately incubated with inhibitors. As these cells already differentiate with 1% DMSO content, inhibitors were prepared as 200× stock solutions in DMSO. In all cases, inhibitors were compared to DMSO vehicle only, and three replicates per concentration were used. Growth inhibition was determined using the CellTiter 96® AQueous Non-Radioactive Cell Proliferation Assay according to the manufacturer’s instructions. Briefly, 5 × 10^4 of HL60 or U937 cells per well were treated with DMSO stocks of the respective inhibitors or with DMSO in 100 µL cell culture medium and incubated for 72 h at 37 °C and 5% CO2 in transparent 96-well microtiter plates (PAA). Subsequently, 20 µL of the detection reagent (containing a tetrazolium salt) was added to each well and incubated for 4 more hours under the same conditions. After this time, absorption was measured at a wavelength of 490 nm (BMG Polarstar, BMG Labtech, Ortenberg, Germany).

U937 cells = test: Cell proliferation assay (CellTiter 96 AQueous) in U937 cells; details: Homo sapiens, U-937, 72 h, read-out: GI50 (µM) ± SE U937
Description: as §5, §6

IC50 (recombinant human HDAC1)	IC50 (recombinant human HDAC6)	IC50 (recombinant human HDAC8)	Release of SAHA (%) [1]	IC50 [3]	IC50 [4]	GI50 (HL60 cells)	GI50 (U937 cells)	Compound	effect on H3 and tubulin acetylation levels [2]	inhibition at 300 µM (recombinant human HDAC1; at 300 µM, read-out: Inhibition (%) @ Concentration (µM) HDAC1)	acetylation levels of H3 [2]	tubulin acetylation [2]
0.132 ± 0.001 µM	0.187 ± 0.007 µM	6.5 µM and 6.49 µM	4.6%	0.69 ± 0.004 µM	0.71 ± 0.002 µM	0.58 ± 0.05 µM	0.42 ± 0.13 µM	O=C(CCCCCCC(=O)Nc1ccccc1)NOC(=O)Nc1ccccc1 [Compound 2d, [(8-Anilino-8-oxo-octanoyl)amino]N-phenylcarbamate]	in the same range as SAHA			
5.1 µM and 5.09 µM	3.7 µM and 3.71 µM		3.7%	22.4 ± 0.28 µM		25.9 ± 1.96 µM		O=C(CCCCCCC(=O)Nc1ccccc1)NOC(=O)N1CCNCC1 [Compound 7, [(8-Anilino-8-oxo-octanoyl)amino]piperazin-4-ium-1-carboxylate trifluoroacetate]	least effective substance			
						0.54 ± 0.03 µM	0.43 ± 0.09 µM	O=C(CCCCCCC(=O)Nc1ccccc1)NO [SAHA (1), N-hydroxy-N′-phenyloctanediamide, reference compound]				

Compound	IC50 (recombinant human HDAC1)	IC50 (recombinant human HDAC6)	IC50 (recombinant human HDAC8)	Release of SAHA (%) [1]	IC50 [3]	IC50 [4]	GI50 (HL60 cells)	GI50 (U937 cells)	effect on H3 and tubulin acetylation levels [2]	inhibition at 300 µM (recombinant human HDAC1; at 300 µM, read-out: Inhibition (%) @ Concentration (µM) HDAC1)	acetylation levels of H3 [2]	tubulin acetylation [2]
CCCCOc1ccc(CC(=O)NOC(=O)NC(C)C)cc1 [Compound 9]		13.7 ± 0.16 µM					33.99 ± 0.06 µM			49%	not affected	hyperacetylation of tubulin

From publication PMC6017415, “Carbamates as Potential Prodrugs and a New Warhead for HDAC Inhibition” (Molecules : A Journal of Synthetic Chemistry and Natural …, 2018)
